Results taken from ChEMBL document CHEMBL3822358 (J Med Chem, 2016).

Experiments:
Insulin receptor = Insulin receptor (Homo sapiens, UniProt P06213)
Description: Inhibition of human InsR using myelin basic protein as substrate and [gamma-33P]ATP measured after 1 hr

[1] = target: T1, ALK tyrosine kinase receptor (Homo sapiens, UniProt Q9UM73)
Target sequence in this assay (Q9UM73 whole entry): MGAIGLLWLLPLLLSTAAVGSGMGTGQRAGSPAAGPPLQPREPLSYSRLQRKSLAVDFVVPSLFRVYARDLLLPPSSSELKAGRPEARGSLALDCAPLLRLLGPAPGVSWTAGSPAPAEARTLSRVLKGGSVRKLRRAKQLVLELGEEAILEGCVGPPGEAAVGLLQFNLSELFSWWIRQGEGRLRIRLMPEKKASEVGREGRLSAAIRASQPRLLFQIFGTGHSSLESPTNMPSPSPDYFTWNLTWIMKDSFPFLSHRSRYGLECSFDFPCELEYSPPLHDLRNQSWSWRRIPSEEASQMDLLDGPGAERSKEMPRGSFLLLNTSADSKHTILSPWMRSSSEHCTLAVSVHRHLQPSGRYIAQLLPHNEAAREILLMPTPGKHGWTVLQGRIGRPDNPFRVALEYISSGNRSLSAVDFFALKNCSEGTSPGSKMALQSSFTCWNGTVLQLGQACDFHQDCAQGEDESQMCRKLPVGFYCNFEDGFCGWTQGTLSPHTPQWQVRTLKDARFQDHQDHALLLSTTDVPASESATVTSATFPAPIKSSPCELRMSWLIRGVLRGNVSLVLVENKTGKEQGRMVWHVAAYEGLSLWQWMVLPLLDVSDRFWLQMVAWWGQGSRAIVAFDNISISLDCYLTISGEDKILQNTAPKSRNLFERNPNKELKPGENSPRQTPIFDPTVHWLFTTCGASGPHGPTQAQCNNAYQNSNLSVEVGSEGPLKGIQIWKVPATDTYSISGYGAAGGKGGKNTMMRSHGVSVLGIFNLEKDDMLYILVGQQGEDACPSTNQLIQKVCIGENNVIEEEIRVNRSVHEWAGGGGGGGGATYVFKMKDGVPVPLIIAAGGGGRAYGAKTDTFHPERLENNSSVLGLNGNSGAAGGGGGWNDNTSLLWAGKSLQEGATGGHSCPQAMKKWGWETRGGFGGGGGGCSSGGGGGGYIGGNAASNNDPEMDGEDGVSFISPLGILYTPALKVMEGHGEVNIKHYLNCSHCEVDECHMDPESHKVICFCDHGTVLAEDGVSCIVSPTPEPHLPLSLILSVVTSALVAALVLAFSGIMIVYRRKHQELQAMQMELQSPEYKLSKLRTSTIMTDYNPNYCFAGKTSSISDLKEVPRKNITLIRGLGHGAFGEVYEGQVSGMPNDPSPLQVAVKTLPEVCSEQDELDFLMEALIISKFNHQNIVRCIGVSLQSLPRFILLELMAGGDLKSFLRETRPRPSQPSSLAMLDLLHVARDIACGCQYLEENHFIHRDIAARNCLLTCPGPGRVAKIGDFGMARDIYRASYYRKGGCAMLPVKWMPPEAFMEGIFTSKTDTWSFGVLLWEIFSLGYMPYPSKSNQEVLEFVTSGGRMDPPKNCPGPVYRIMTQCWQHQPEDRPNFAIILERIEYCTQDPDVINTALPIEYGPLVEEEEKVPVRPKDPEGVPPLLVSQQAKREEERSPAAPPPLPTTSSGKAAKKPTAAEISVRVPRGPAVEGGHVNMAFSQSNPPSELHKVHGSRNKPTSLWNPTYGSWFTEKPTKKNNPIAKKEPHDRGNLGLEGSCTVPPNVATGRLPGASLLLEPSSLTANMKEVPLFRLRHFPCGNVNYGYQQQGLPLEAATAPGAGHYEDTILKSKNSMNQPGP
Description: Inhibition of human ALK using poly[Glu:Tyr] (4:1) as substrate and [gamma-33P]ATP measured after 1 hr

[2] = target: Insulin-like growth factor 1 receptor (Homo sapiens, UniProt P08069)
cells [3] = conditions: Homo sapiens, KARPAS-299, 72 h
Description: Antiproliferative activity against human ALK-positive KARPAS299 cells assessed as reduction in cell viability measured after 72 hrs by CellTiter 96 aqueous one solution cell proliferation assay

cells [4] = conditions: Homo sapiens, U-937, 72 h
Description: Antiproliferative activity against human ALK-negative U937 cells assessed as reduction in cell viability measured after 72 hrs by CellTiter 96 aqueous one solution cell proliferation assay

[5] = Volume of distribution at steady state in CD rat at 3 mg/kg, iv by LC-MS/MS analysis; assay type: ADME, organism-based; conditions: CD, in vivo, read-out: Vdss
[6] = AUC (0 to infinity) in CD rat at 3 mg/kg, iv by LC-MS/MS analysis; assay type: ADME, organism-based; parameters: dose 3 mg/kg, time infinity, route intravenous; conditions: CD, in vivo
[7] = AUC (0 to infinity) in CD rat at 10 mg/kg, po by LC-MS/MS analysis; assay type: ADME, organism-based; parameters: dose 10 mg/kg, route oral, time infinity; conditions: in vivo
[8] = Half life in CD rat at 3 mg/kg, iv by LC-MS/MS analysis; assay type: ADME, organism-based; conditions: CD, in vivo
[9] = Cmax in CD rat at 10 mg/kg, po by LC-MS/MS analysis; assay type: ADME, organism-based; parameters: dose 10 mg/kg, route oral; conditions: in vivo
[10] = Tmax in CD rat at 10 mg/kg, po by LC-MS/MS analysis; assay type: ADME, organism-based; conditions: in vivo
[11] = target: T1, ALK tyrosine kinase receptor; experiment: Inhibition of ALK phosphorylation in mouse xenografted with human KARPAS299 cells assessed as p-ALK level at 25 mg/kg, po administered as single dose measured after 10 hrs relative to 2 hrs vehicle-treated tumor; assay type: organism-based; parameters: scale not given: the % may be the effect or the level left; conditions: KARPAS-299
Target sequence in this assay (Q9UM73 19-1620 limits assumed): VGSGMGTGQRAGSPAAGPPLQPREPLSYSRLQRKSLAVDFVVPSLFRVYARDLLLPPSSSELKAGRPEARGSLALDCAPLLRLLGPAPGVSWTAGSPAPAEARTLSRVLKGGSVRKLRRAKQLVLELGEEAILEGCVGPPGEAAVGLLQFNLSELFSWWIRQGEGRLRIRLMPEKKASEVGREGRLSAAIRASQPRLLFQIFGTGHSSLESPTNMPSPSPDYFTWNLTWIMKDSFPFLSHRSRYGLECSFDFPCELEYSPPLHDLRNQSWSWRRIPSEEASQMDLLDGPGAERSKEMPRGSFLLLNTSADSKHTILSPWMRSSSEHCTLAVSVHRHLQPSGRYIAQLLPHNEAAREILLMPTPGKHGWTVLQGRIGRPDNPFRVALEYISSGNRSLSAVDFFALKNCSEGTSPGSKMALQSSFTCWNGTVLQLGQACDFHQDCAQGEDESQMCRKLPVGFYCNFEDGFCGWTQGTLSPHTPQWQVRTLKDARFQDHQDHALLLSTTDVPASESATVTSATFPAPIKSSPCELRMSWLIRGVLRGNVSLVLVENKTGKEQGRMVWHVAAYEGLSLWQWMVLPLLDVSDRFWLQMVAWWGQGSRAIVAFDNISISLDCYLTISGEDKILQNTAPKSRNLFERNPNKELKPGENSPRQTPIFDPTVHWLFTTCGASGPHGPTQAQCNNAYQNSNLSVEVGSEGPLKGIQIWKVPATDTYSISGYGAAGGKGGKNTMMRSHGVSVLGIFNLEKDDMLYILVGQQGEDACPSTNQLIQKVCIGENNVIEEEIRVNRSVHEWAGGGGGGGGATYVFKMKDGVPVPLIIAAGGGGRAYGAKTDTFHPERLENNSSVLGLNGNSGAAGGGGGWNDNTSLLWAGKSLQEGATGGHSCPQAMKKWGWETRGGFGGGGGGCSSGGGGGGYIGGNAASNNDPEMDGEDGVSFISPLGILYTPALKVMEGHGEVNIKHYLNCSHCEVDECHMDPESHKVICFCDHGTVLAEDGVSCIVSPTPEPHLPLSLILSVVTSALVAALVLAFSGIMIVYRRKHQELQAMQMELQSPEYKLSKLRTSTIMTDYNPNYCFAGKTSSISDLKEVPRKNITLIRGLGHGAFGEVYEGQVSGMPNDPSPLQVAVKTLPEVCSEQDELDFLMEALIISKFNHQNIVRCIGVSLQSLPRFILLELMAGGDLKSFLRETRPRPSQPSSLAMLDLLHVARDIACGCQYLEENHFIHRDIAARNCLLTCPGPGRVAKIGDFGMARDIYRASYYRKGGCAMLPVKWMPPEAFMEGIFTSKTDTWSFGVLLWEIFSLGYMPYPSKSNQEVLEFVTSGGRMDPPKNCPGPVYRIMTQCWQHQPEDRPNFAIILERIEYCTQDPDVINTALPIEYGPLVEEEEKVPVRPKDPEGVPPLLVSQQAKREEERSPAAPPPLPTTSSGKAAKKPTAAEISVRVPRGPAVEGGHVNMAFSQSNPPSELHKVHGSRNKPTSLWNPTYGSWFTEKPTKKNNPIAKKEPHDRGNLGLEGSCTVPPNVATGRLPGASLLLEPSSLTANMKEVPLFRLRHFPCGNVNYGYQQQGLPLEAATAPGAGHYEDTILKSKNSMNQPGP

[12] = target: T1, ALK tyrosine kinase receptor; experiment: Inhibition of ALK phosphorylation in mouse xenografted with human KARPAS299 cells assessed as p-ALK level at 25 mg/kg, po administered as single dose measured after 24 hrs relative to 2 hrs vehicle-treated tumor; assay type: organism-based; parameters: scale not given: the % may be the effect or the level left; conditions: KARPAS-299
Target sequence in this assay (Q9UM73 19-1620 limits assumed): as above

[13] = Clearance in CD rat at 3 mg/kg, iv by LC-MS/MS analysis; assay type: ADME, organism-based; conditions: in vivo
[14] = Half life in CD rat at 10 mg/kg, po by LC-MS/MS analysis; assay type: ADME, organism-based; conditions: in vivo
[15] = Oral bioavailability in CD rat at 10 mg/kg by LC-MS/MS analysis; assay type: ADME, organism-based; conditions: in vivo
[16] = target: T1, ALK tyrosine kinase receptor; experiment: Inhibition of ALK phosphorylation in mouse xenografted with human KARPAS299 cells assessed as p-ALK level at 25 mg/kg, po administered as single dose measured after 16 hrs relative to 2 hrs vehicle-treated tumor; assay type: organism-based; parameters: scale not given: the % may be the effect or the level left; conditions: KARPAS-299
Target sequence in this assay (Q9UM73 19-1620 limits assumed): as above

Insulin receptor, sequence (P06213 28-758 limits assumed): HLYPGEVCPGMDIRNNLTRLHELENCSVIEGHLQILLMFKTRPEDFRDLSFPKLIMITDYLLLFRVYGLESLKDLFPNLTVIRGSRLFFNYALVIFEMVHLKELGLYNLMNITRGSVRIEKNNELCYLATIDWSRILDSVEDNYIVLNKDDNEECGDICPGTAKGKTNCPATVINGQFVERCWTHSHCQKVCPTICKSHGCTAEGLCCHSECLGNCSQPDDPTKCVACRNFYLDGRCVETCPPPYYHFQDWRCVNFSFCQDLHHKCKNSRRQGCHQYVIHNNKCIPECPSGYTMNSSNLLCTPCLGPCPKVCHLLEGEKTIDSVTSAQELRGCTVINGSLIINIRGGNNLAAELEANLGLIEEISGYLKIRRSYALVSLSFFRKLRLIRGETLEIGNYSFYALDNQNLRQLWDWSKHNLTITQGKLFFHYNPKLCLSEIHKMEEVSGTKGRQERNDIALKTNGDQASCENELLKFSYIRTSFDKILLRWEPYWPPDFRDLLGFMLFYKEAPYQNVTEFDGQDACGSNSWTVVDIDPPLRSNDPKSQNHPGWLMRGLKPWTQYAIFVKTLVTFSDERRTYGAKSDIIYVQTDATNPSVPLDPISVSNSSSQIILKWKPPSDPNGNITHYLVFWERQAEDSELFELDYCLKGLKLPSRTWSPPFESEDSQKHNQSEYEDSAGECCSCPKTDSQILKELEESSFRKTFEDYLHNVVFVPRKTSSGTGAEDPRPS
Insulin receptor, sequence (P06213 763-1382 limits assumed): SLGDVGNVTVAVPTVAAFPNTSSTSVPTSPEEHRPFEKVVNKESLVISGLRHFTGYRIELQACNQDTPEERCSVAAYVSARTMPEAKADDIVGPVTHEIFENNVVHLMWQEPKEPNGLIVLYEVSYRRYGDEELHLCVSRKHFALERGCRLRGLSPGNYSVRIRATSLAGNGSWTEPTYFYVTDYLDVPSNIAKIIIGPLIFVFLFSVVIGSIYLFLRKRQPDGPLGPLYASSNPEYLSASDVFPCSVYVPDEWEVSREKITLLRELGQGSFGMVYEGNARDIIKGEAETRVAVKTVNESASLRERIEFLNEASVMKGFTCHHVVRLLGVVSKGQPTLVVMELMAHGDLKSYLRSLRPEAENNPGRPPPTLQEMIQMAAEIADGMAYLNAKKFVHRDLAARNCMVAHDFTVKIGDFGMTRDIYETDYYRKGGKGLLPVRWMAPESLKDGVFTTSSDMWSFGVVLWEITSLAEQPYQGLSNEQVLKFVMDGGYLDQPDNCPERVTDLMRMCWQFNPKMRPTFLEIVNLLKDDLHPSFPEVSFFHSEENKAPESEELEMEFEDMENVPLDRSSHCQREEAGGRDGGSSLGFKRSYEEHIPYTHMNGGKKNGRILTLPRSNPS

COc1cc(N2CCC(N3CCN(C)CC3)CC2)ccc1Nc1ncc(Cl)c(Nc2ccccc2S(C)(=O)=O)n1
IC50 (Insulin receptor): 5.1 nM
IC50 [1]: 0.59 nM
IC50 [2]: 0.76 nM

COc1cc(N2CCN(C3CCN(C)CC3)CC2)ccc1Nc1ncc(Cl)c(Nc2ccccc2P(C)(C)=O)n1
IC50 (Insulin receptor): 285 nM
IC50 [1]: 0.28 nM
IC50 (cells [3]): 101 nM
IC50 [2]: 43.3 nM
IC50 (cells [4]): 4920 nM

COc1cc(P(C)(C)=O)ccc1Nc1ncc(Cl)c(Nc2ccccc2P(C)(C)=O)n1
IC50 (Insulin receptor): 726 nM
IC50 [1]: 1.06 nM
IC50 (cells [3]): 738 nM
IC50 [2]: 139 nM
IC50 (cells [4]): 13200 nM

COc1cc(-c2cnn(C3CCNCC3)c2)ccc1Nc1ncc(Cl)c(Nc2ccccc2P(C)(C)=O)n1
IC50 (Insulin receptor): 702 nM
IC50 [1]: 0.76 nM
IC50 (cells [3]): 322 nM
IC50 [2]: 98.1 nM
IC50 (cells [4]): 6230 nM

COc1cc(N2CCC(N3CCN(C)CC3)CC2)ccc1Nc1ncc(Cl)c(Nc2ccccc2C(C)O)n1 (stereo unspecified)
IC50 (Insulin receptor): 43.2 nM
IC50 [1]: 0.99 nM
IC50 [2]: 36.1 nM

CNC(=O)CN1CCN(c2ccc(Nc3ncc(Cl)c(Nc4ccccc4P(C)(C)=O)n3)c(OC)c2)CC1
IC50 (Insulin receptor): 459 nM
IC50 [1]: 3.1 nM
IC50 (cells [3]): 270 nM
IC50 [2]: 125 nM
IC50 (cells [4]): 7000 nM

COc1ccccc1Nc1ncc(Cl)c(Nc2ccccc2S(=O)(=O)C(C)C)n1
IC50 [1]: 2.1 nM
IC50 (cells [3]): 349 nM
IC50 (cells [4]): 20800 nM

CC(C)Oc1cc(N2CCC(N3CCN(C)CC3)CC2)ccc1Nc1ncc(Cl)c(Nc2ccccc2P(C)(C)=O)n1
IC50 (Insulin receptor): 700 nM
IC50 [1]: 0.68 nM
IC50 (cells [3]): 54.6 nM
IC50 [2]: 203 nM
IC50 (cells [4]): 21500 nM

COc1cc(N2CCC(N3CCN(C)CC3)CC2)ccc1Nc1ncc(OC)c(Nc2ccccc2P(C)(C)=O)n1
IC50 (Insulin receptor): 1680 nM
IC50 [1]: 1.19 nM
IC50 (cells [3]): 429 nM
IC50 [2]: 117 nM
IC50 (cells [4]): 13900 nM

COc1cc(N2CCC(N3CCCCC3)C2)ccc1Nc1ncc(Cl)c(Nc2ccccc2P(C)(C)=O)n1 (stereo unspecified)
IC50 (Insulin receptor): 270 nM
IC50 [1]: 0.88 nM
IC50 (cells [3]): 66.7 nM
IC50 [2]: 81.5 nM
IC50 (cells [4]): 2390 nM

COc1cc(N2CCC(N(C)C)CC2)ccc1Nc1ncc(Cl)c(Nc2ccccc2P(C)(C)=O)n1
IC50 (Insulin receptor): 100 nM
IC50 [1]: 0.07 nM
IC50 (cells [3]): 41.5 nM
IC50 [2]: 3.2 nM
IC50 (cells [4]): 1720 nM

COc1cc(N2CCC(N3CCOCC3)CC2)ccc1Nc1ncc(Cl)c(Nc2ccccc2P(C)(C)=O)n1
Vd [5]: 0.78 L/kg
IC50 (Insulin receptor): 270 nM
AUC(0-inf) [6]: 17900 ng·h/mL
AUC(0-inf) [7]: 43600 ng·h/mL
IC50 [1]: 0.49 nM
half-life [8]: 3.9 h
IC50 (cells [3]): 61 nM
Cmax [9]: 2840 ng/mL
Tmax [10]: 2 h
Activity [11]: 15%
Activity [12]: 50%
clearance [13]: 2.83 mL/min/kg
IC50 [2]: 47.3 nM
half-life [14]: 6.8 h
IC50 (cells [4]): 5680 nM
bioavailability [15]: 73%
Activity [16]: 52%

COc1cc(N2CCC(N3CCN(C)CC3)CC2)ccc1Nc1ncc(Cl)c(Nc2ccccc2C(=O)N(C)C)n1
IC50 (Insulin receptor): 6.05 nM
IC50 [1]: 4.77 nM
IC50 [2]: 6.17 nM

COc1cc(N2CCCN(C)CC2)ccc1Nc1ncc(Cl)c(Nc2ccccc2P(C)(C)=O)n1
IC50 (Insulin receptor): 339 nM
IC50 [1]: 0.72 nM
IC50 (cells [3]): 53.9 nM
IC50 [2]: 77.5 nM
IC50 (cells [4]): 2970 nM

COc1cc(OC2CCN(C)C2)ccc1Nc1ncc(Cl)c(Nc2ccccc2P(C)(C)=O)n1 (stereo unspecified)
IC50 (Insulin receptor): 397 nM
IC50 [1]: 0.33 nM
IC50 (cells [3]): 65.1 nM
IC50 [2]: 100 nM
IC50 (cells [4]): 6330 nM

COc1cc(OCCCN2CCCC2)ccc1Nc1ncc(Cl)c(Nc2ccccc2P(C)(C)=O)n1
IC50 (Insulin receptor): 284 nM
IC50 [1]: 0.22 nM
IC50 (cells [3]): 113 nM
IC50 [2]: 17.4 nM
IC50 (cells [4]): 2310 nM

COc1cc(P(C)(C)=O)ccc1Nc1ncc(Cl)c(Nc2ccccc2C(C)=O)n1
IC50 (Insulin receptor): 0.88 nM
IC50 [1]: 0.79 nM
IC50 (cells [3]): 251 nM
IC50 [2]: 0.47 nM
IC50 (cells [4]): 1420 nM

COc1cc(N2CCC(N3CCN(C)CC3)CC2)ccc1Nc1ncc(C2CC2)c(Nc2ccccc2P(C)(C)=O)n1
IC50 (Insulin receptor): 367 nM
IC50 [1]: 3.23 nM
IC50 (cells [3]): 278 nM
IC50 [2]: 434 nM
IC50 (cells [4]): 10600 nM

COc1cc(N2CCC(N3CCN(C)CC3)CC2)ccc1Nc1ncc(Cl)c(Nc2ccccc2C#N)n1
IC50 (Insulin receptor): 128 nM
IC50 [1]: 1.86 nM
IC50 [2]: 51.6 nM

COc1cc(N2CCC(N3CCN(C)CC3)CC2)ccc1Nc1ncc(Cl)c(Nc2ccccc2OC)n1
IC50 (Insulin receptor): 26 nM
IC50 [1]: 1.88 nM
IC50 (cells [3]): 851 nM
IC50 [2]: 8.7 nM
